Data from patent US8258259B2, “Macromolecular compounds having controlled stoichiometry” (Starpharma Pty Limited, priority 2005, dated 2012).
Entries after “also recorded” stand apart in the source; their conditions may differ. Marks after values point to notes of the source that are not given here.

How the values were obtained:
[1] = Plasma clearance studies for radiolabelled (tritiated) macromolecules: plasma, urine, faeces and organ tritium after 5 mg/kg intravenous dose; format: in vivo; settings: rats; for plasma T½: tritiated macromolecule; for % of 3H dose excreted in total urine: urine collected 0-30 hr
Procedure: Tritiated poly-lysine macromolecules were dissolved in phosphate buffered saline (PBS), pH 7.4) and frozen until required. Rats were intravenously administered 5 mg/kg of macromolecule via an indwelling cannula (implanted in the jugular vein) over 2 min.
Immediately following dosing, a blood sample (t=0) was collected via an indwelling carotid artery cannula and placed in a heparinised eppendorf tube.
Blood samples were then collected at predetermined intervals for the following 30 hr, and the plasma separated. In addition, urine and faeces were collected at 0-8 hr, 8-24 hr and 24-30 hr. At sacrifice (30 hr after the intravenous dose) the major organs (liver, kidneys, spleen, pancreas, heart, lung and brain) were collected and weighed. The tritium content of plasma, urine, faeces and the various tissue samples were determined using validated scintillation assays.

[2] = system: T cell tropic NL4.3 strain of HIV-1; assay: Antiviral efficacy: MT-2 cells infected with HIV-1 NL4.3, cell viability by MTS after 6 days (IC50); format: cell-based; settings: for EC50: MT-2 cells infected with HIV-1 NL4.3, 6 days, MTS viability; for anti-HIV activity compared with SPL7013: MT-2 cells, HIV-1 NL4.3, comparison with homogenous surface dendrimer SPL7013 (Table 24)
Procedure: MT-2 cells are infected with the T cell tropic NL4.3 strain of HIV-1 in the presence of 6, 5-fold serial concentrations of compound in triplicate wells of a 96 well plate. In the same plate, cells are exposed to the same drug concentrations in the absence of virus to determine the cytotoxic concentrations of the compound. […] Antimicrob Agents Chemother.
After 6 days incubation at 37° C. in a CO2 incubator, cell viability of both virus-infected and uninfected cells is determined by incubating cells for 3-4 hours with 3-(4,5-dimethylthiazol-2-yl)-5-(3-carboxymethoxyphenyl)-2-(4-sulfophenyl)-2H-tetrazolium (MTS) according to manufacturer's instructions (CellTiter 96 AQueous One Solution Cell Proliferation assay (Promega, Madison Wis.)).

[3] = system: T cell tropic NL4.3 strain of HIV-1; settings: positive control of the assay; Dezzutti et al. 2004; cited from earlier work

For “BHALys[Lys]8[Su(NPN)2]16 [γ-CO-MTX-α-OtBu]16 [COPEG2300]16 [Example 63]”, the “plasma T½” value [1] was 34.1 ± 1.1 h.
With “BHALys[GlyLys]2[Lys]4[Boc]6[ε,ε-COCH2O-3,6-Naph (SO3Na)2]2 [Example 49]” the EC50 [2] was 2.2 µg/mL.
In the case of “BHALys[Lys]2[α,ε-Lys][COCH2O-3,6-Naph(SO3Na)2]2[Lys]3 [Boc]6 [Example 47]”, the EC50 [2] is reported as >50 µg/mL.
In the case of “DAH [Lys]8[α-CO-3,5-Ph(SO3Na)2]8[ε-COC5H12]8 [Example 32]”, the EC50 [2] is reported as 5.8 µg/mL.
“BHALys[Lys]8[α-CO-4-Ph(SO3Na)]8[ε-CBz]8 [Example 38]” gave an EC50 [2] of 2.2 µg/mL.
For “BHALys[Lys]8[Su(NPN)2]16 [γ-CO-MTX-α-OtBu]16 [COPEG12]16 [Example 58]”, the “plasma T½” value [1] was 9.0 ± 0.2^a h.
Work on “BHALys[Lys]2[GlyLys]4[Lys]8[α,α-COCH2O-3,6-Naph(SO3Na)2]4[α,εCOCH2O-3,6-Naph(SO3Na)2]4[ε,α-COC5H12]4[ε,ε-COC5H12]4 [Example 45]” yielded an EC50 [2] of 0.37 µg/mL.
Substance “BHALys[Lys]8[α-CO-3,5-Ph(SO3Na)2]8[ε-CBz]8 [Example 37]” has an EC50 [2] of 2 µg/mL.
Substance “BHALys[Lys]16 [α-COCH2O-3,6-Naph(SO3Na)2]16 [ε-CBz]16 [Example 39]” has an EC50 [2] of 2.4 µg/mL.
For “BHALys[GlyLys]2[Lys]4[COCH2O-3,6-Naph(SO3Na)2]6 [ε,ε-CBz]2 [Example 48]”, the EC50 [2] was 0.13 µg/mL and the “anti-HIV activity compared with SPL7013” value [2] was “considerably more active than SPL7013; also recorded: significantly more active than SPL7013”.
With BHALys[Lys]8[PEG200]16 [Example 51] the “plasma T½” value [1] was 0.25 ± 0.04 h and the “% of 3H dose excreted in total urine” value [1] was 82.2 ± 6.4%.
“BHALys[Lys]16 [α-CO-3,5-Ph(SO3Na)2]16[ε-CBz]16 [Example 40]” gave an EC50 [2] of 3.2 µg/mL.
With “BHALys[Lys]8[α-CO2PEG3]8[ε-CO-3,5-Ph(SO3Na)2]8 [Example 34]” the EC50 [2] was 84.5 µg/mL.
For “BHALys[Lys]2[GlyLys]4[Lys]8[α,α-Boc]4[α,ε-Boc]4[ε,α-COCH2O-3,6-Naph(SO3Na)2]4 [ε,ε-COCH2O-3,6-Naph(SO3Na)2]4 [Example 44]”, the EC50 [2] was 0.33 µg/mL.
With “BHALys[Lys]2[α,ε-Lys][CBz]2[Lys]3 [COCH2O-3,6-Naph(SO3Na)2]6 [Example 46]” the EC50 [2] was 0.14 µg/mL and the “anti-HIV activity compared with SPL7013” value [2] was “considerably more active than SPL7013; also recorded: significantly more active than SPL7013”.
Work on “BHALys[Lys]8[α-COCH2O-3,6-Naph(SO3Na)2]8[ε-CBz]8 [Example 36]” yielded an EC50 [2] of 3.2 µg/mL.
In the case of BHALys[Lys]16 [PEG570]32 [Example 53], the “plasma T½” value [1] is reported as 9.45 ± 0.42 h and the “% of 3H dose excreted in total urine” value [1] is reported as 42.9 ± 2.7%.
Substance “BHALys[Lys]4[α-CO-4-PhSO3Na]4[ε-COC5H12]4 [Example 31]” has an EC50 [2] of 344 µg/mL.
For “BHALys[GlyLys]2[Lys]4[α,α-Boc]2[ε,α-COCH2O-3,6-Naph(SO3Na)2]2[ε,ε-COCH2O-3,6-Naph(SO3Na)2]2 [Example 42]”, the EC50 [2] was 10.6 µg/mL.
With “BHALys[Lys]16 [α-CO-4-Ph(SO3Na)]16 [ε-CBz]16 [Example 41]” the EC50 [2] was 4.2 µg/mL.
In the case of BHALys[Lys]8[PEG2KD]16 [Example 54], the “plasma T½” value [1] is reported as 23.90 ± 2.56 h and the “% of 3H dose excreted in total urine” value [1] is reported as 26.0 ± 4.6%.
Work on “BHALys[Lys]4[α-COCH2O-3,6-Naph(SO3Na)2]4[ε-COC5H12]4 [Example 29]” yielded an EC50 [2] of 23.8 µg/mL.
In the case of “BHALys[Lys]16 [Su(NPN)2]32 [γ-CO-MTX-α-OtBu]32 [COPEG24]32 [Example 62]”, the “plasma T½” value [1] is reported as 51.4 ± 2.7 h.
For “BHALys[Lys]16[COCH2O-3,6-Naph(SO3Na)2]32 [SPL7013, reference compound]”, the EC50 [2] is listed as 1.5 µg/mL and the HIV replication [3] is listed as “inhibits HIV replication”.
“BHALys[Lys]4[α-COC5H12]4[ε-COCH2O-3,6-Naph(SO3Na)2]4 [Example 30]” gave an EC50 [2] of 58.3 µg/mL.
“BHALys[GlyLys]2[Lys]4[α,α-COCH2O-3,6-Naph(SO3Na)2]2[α,ε-COCH2O-3,6-Naph(SO3Na)2]2[ε,α-COC5H12]2[ε,ε-COC5H12]2 [Example 43]” showed an EC50 [2] of 0.24 µg/mL.
With BHALys[Lys]16 [PEG200]32 [Example 52] the “plasma T½” value [1] was 0.72 ± 0.03 h and the “% of 3H dose excreted in total urine” value [1] was 80.4 ± 13.6%.
With BHALys[Lys]16 [PEG2KD]32 [Example 55] the “plasma T½” value [1] was 75.35 ± 9.3 h and the “% of 3H dose excreted in total urine” value [1] was 3.1 ± 1.9%.
With “BHALys[Lys]8[α-CO2PEG3]8[ε-CO-4-PhSO3Na]8 [Example 35]” the EC50 [2] was >500 µg/mL.
“DAH [Lys]8[α-COCH2O-3,6-Naph(SO3Na)2]8[ε-COC5H12]8 [Example 33]” showed an EC50 [2] of 0.71 µg/mL.
With “BHALys[Lys]4[Su(NPN)2]8[γ-CO-MTX-α-OtBu]8[COPEG24]8 [Example 60]” the “plasma T½” value [1] was 3.9 ± 0.1^a h.
In the case of “BHALys[Lys]16 [Su(NPN)2]32 [γ-CO-MTX-α-OtBu]32 [COPEG12]32 [Example 59]”, the “plasma T½” value [1] is reported as 23.7 ± 5.0 h.
With “BHALys[Lys]8[Su(NPN)2]16 [γ-CO-MTX-α-OtBu]16 [COPEG24]16 [Example 61]” the “plasma T½” value [1] was 21.0 ± 1.7 h.
